From patent publication US6906205B2, “Spiro and dispiro 1,2,4-trioxolane antimalarials” (Medicines for Malaria Venture MMV, priority 2002, dated 2005)
Converted amounts (≈) assume the structure as drawn.

Experiments:
[1] = tested on: P. falciparum K1 strain (Thailand resistant to chloroquine); experiment: semiautomated microdilution assay, [3H]-hypoxanthine incorporation, K1 strain; assay type: cell-based, Plasmodium falciparum; conditions: K1 strain, 72 h incubation
Method in brief: (§1)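 Compounds were tested against intraerythrocytic parasites taken from asynchronous stock cultures, using semiautomated microdilution. IC50 values were estimated by logit regression analysis.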

[2] = tested on: P. falciparum NF54 strain (sensitive to standard antimalarials); experiment: semiautomated microdilution assay, [3H]-hypoxanthine incorporation, NF54 strain; assay type: cell-based, Plasmodium falciparum; conditions: NF54 strain, 72 h incubation
Method in brief: as §1

[3] = tested on: ANKA strain of P. berghei; experiment: single dose STI in vivo screen in infected mice; parameters: species or system Plasmodium berghei; conditions: for Activity (%) po / Survival (days) po: single 10 mg/kg po in 3% ethanol and 7% Tween 80; for Activity (%) po / Activity (%) sc / Activity (%) SSVpo: mice; for Activity (%) sc / Survival (days) sc: single 10 mg/kg sc in 3% ethanol and 7% Tween 80; for Activity (%) SSVpo: single po dose in standard suspending vehicle (SSV); for Survival (days) po / Survival (days) sc / Survival (days) SSVpo: untreated control 5.6 ± 0.3; for Survival (days) SSVpo: single po dose in SSV
Method in brief: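 Groups of 3-5 Moro SPF or NMRI mice infected with the ANKA strain of P. berghei received a single dose of trioxolane on day one post-infection. The compound was given in 3% ethanol and 7% Tween 80 or in SSV (0.5% w/v CMC, 0.5% v/v benzyl alcohol, 0.4% v/v Tween 80, 0.9% w/v sodium chloride in water). Antimalarial activity was scored as percent reduction in parasitemia on day three and as survival time versus untreated controls. Survival to day 30 counted as cure.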

[4] = percent reduction in parasitemia day 3 post-infection

SMILES | IC50 (ng/ml) K1 [1] | IC50 (ng/ml) NF54 [2] | Activity (%) po [3, 4] [%] | Activity (%) sc [3, 4] [%] | Activity (%) SSVpo [3, 4] [%] | Survival (days) po [3] [days] | Survival (days) sc [3] [days] | Survival (days) SSVpo [3] [days] | Activity (%) 3 mg/kg SSV po ([3]; percent reduction in parasitemia day 3 post-infection, single 3 mg/kg po in SSV) [%] | Activity (%) 10 mg/kg SSV po ([3]; percent reduction in parasitemia day 3 post-infection, single 10 mg/kg po in SSV) [%] | Survival (days) 10 mg/kg SSV po ([3]; single 10 mg/kg po in SSV) [days]
CC1(C)C2CCC1(CS(=O)(=O)N1CCC3(CC1)OOC1(O3)C3CC4CC(C3)CC1C4)C(=O)C2 (centres unmarked) [OZ91] | 1.4 ng/mL (≈ 0.00292 µM) | 0.42 ng/mL (≈ 0.000876 µM) | 20 | 85 | 0 | 5.7 | 7.3 | 6.0 | – | – | –
CC(C)C1CCC2(CC1)OOC1(O2)C2CC3CC(C2)CC1C3 (centres unmarked) [OZ40] | 1.4 ng/mL (≈ 0.00457 µM) | 2.0 ng/mL (≈ 0.00653 µM) | 99 | 99.8 | – | 7.3 | 9.0 | – | – | – | –
c1cc(CN2CCC3(CC2)OOC2(O3)C3CC4CC(C3)CC2C4)ccn1 (centres unmarked) [OZ216] | 0.40 ng/mL (≈ 0.00112 µM) | 0.67 ng/mL (≈ 0.00188 µM) | 62 | 99.02 | 69 | 6.3 | 11.0 | 7.7 | – | – | –
O=C1c2ccccc2C(=O)N1CC[C@H]1CC[C@]2(CC1)OOC1(O2)C2CC3CC(C2)CC1C3 (some centres unmarked) [OZ215] | 6.4 ng/mL (≈ 0.0146 µM) | 7.3 ng/mL (≈ 0.0167 µM) | 96 | 39 | 25 | 9.7 | 7.0 | 6.3 | – | – | –
Fc1ccc(C2(c3ccc(F)cc3)OOC3(O2)C2CC4CC(C2)CC3C4)cc1 (centres unmarked) [OZ44] | 2.5 ng/mL (≈ 0.0065 µM) | 2.3 ng/mL (≈ 0.00598 µM) | 99.3 | 99.9 | – | 7.0 | 8.3 | – | – | – | –
O=[N+]([O-])c1cc(C2(c3ccc(Cl)c([N+](=O)[O-])c3)OOC3(O2)C2CC4CC(C2)CC3C4)ccc1Cl (centres unmarked) [OZ96] | 8.4 ng/mL (≈ 0.0166 µM) | > 10 ng/mL | 12 | 19 | 14 | 5.7 | 5.3 | 5.7 | – | – | –
N#CC1(c2ccccc2)CCC2(CC1)OOC1(O2)C2CC3CC(C2)CC1C3 (centres unmarked) [OZ63] | 1.6/1.6 ng/ml | 1.6/1.6 ng/ml | 99.62 | 99.91 | 65 | 7.3 | 9.3 | 6.0 | – | – | –
c1ccc(CN2CCC3(CC2)OOC2(O3)C3CC4CC(C3)CC2C4)cc1 (centres unmarked) [OZ220] | 6.9 ng/mL (≈ 0.0194 µM) | 4.9 ng/mL (≈ 0.0138 µM) | 40 | 99.95 | 0 | 6.0 | 10.0 | 5.3 | – | – | –
Fc1ccc(OC2CCC3(CC2)OOC2(O3)C3CC4CC(C3)CC2C4)cc1 (centres unmarked) [OZ193] | 5.5 ng/mL (≈ 0.0147 µM) | 8.3 ng/mL (≈ 0.0222 µM) | 99.75 | 99.92 | 93 | 9.3 | 11.0 | 8.0 | – | – | –
O=C(O)CCC(=O)NC[C@H]1CC[C@]2(CC1)OO[C@]1(O2)C2CC3CC(C2)CC1C3 [OZ300] | 71 ng/mL (≈ 0.18 µM) | 97 ng/mL (≈ 0.247 µM) | – | – | – | – | – | – | 0 | 6 | 6.8
CS(=O)(=O)c1ccc([C@H]2CC[C@]3(CC2)OOC2(O3)C3CC4CC(C3)CC2C4)cc1 (some centres unmarked) [OZ178] | 21 ng/mL (≈ 0.0502 µM) | 27 ng/mL (≈ 0.0645 µM) | 32 | 31 | 23 | 7.3 | 10.0 | 7.3 | – | – | –
CC(C)(C)COC(=O)C1CCC2(CC1)OOC1(O2)C2CC3CC(C2)CC1C3 (centres unmarked) [OZ64] | 1.5 ng/mL (≈ 0.00396 µM) | 1.3 ng/mL (≈ 0.00343 µM) | 95 | 98 | – | 7.3 | 8.0 | – | – | – | –
Fc1ccc(C2CCC3(CC2)OOC2(O3)C3CC4CC(C3)CC2C4)cc1 (centres unmarked) [OZ41] | 3.5 ng/mL (≈ 0.00976 µM) | 4.6 ng/mL (≈ 0.0128 µM) | 99.98 | 99.5 | 81 | 12.1 | 10.7 | 6.8 | – | – | –
N=C(N)NN=C1CCC2(CC1)OOC1(O2)C2CC3CC(C2)CC1C3 (centres unmarked) [OZ172] | 3.5 ng/mL (≈ 0.0105 µM) | 5.0 ng/mL (≈ 0.015 µM) | 68 | 100 | 82 | 8.0 | 10.3 | 10.3 | – | – | –
COC(=O)c1ncn(C[C@H]2CC[C@]3(CC2)OOC2(O3)C3CC4CC(C3)CC2C4)n1 (some centres unmarked) [OZ234] | 3.0 ng/mL (≈ 0.00744 µM) | 3.6 ng/mL (≈ 0.00892 µM) | 12 | 0 | 0 | 6.0 | 6.3 | 6.0 | – | – | –
NC(=O)N[C@H]1CC[C@]2(CC1)OOC1(O2)C2CC3CC(C2)CC1C3 (some centres unmarked) [OZ221] | >10/>10 ng/ml | >10/>10 ng/ml | 80 | 97 | 87 | 6.3 | 8.0 | 7.0 | – | – | –
O=C(O)CCC[C@H]1CC[C@]2(CC1)OOC1(O2)C2CC3CC(C2)CC1C3 (some centres unmarked) [OZ261] | 39 ng/mL (≈ 0.111 µM) | 18 ng/mL (≈ 0.0514 µM) | 61 | 92 | 47 | 7.0 | 8.0 | 7.0 | – | – | –
CCCCS(=O)(=O)N1CCC2(CC1)OOC1(O2)C2CC3CC(C2)CC1C3 (centres unmarked) [OZ92] | 1.6 ng/mL (≈ 0.00415 µM) | 0.40 ng/mL (≈ 0.00104 µM) | 81 | 99.98 | 35 | 6.7 | 10.0 | 6.3 | – | – | –
c1ccc2c(c1)-c1ccccc1C21OOC2(O1)C1CC3CC(C1)CC2C3 (centres unmarked) [OZ94] | 57 ng/mL (≈ 0.165 µM) | 28 ng/mL (≈ 0.0808 µM) | 21 | 11 | 0 | 6.0 | 5.3 | 5.7 | – | – | –
